Results on 20 compounds are retold here after BindingDB's records for doi:10.1074/jbc.M113.521955 (Albert Einstein College of Medicine, 2013).

In general, Ki refers to the equilibrium dissociation constant of an inhibitor or competing ligand from its target. A lower Ki goes with higher affinity.

The target of assay [1] is T1, Orotate phosphoribosyltransferase (Plasmodium falciparum (isolate 3D7), UniProt Q8I3Y0).
T1 sequence (Q8I3Y0 whole entry): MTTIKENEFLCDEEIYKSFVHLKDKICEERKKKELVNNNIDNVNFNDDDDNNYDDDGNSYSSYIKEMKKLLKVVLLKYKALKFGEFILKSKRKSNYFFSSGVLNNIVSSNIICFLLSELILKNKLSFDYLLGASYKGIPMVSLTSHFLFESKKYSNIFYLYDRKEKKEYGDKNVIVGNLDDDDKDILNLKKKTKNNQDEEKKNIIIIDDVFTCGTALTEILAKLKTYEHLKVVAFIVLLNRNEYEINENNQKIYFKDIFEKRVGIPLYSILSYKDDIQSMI
As to the kind of experiment: Inhibition Assay. Particulars: pH 8; 25 °C. As for the experimental part: (§1) In all cases, the inhibitor concentration was at least 10 times the enzyme concentration. Reaction rates were monitored through the absorbance increase at 295 nm to give an extinction coefficient of 3.67 mM-1 cm-1 [Abdo et al., Org. Lett., 12:2982-2985].

Assay [2] addresses T2, Uridine 5'-monophosphate synthase (Homo sapiens, UniProt P11172).
T2 sequence (P11172 whole entry): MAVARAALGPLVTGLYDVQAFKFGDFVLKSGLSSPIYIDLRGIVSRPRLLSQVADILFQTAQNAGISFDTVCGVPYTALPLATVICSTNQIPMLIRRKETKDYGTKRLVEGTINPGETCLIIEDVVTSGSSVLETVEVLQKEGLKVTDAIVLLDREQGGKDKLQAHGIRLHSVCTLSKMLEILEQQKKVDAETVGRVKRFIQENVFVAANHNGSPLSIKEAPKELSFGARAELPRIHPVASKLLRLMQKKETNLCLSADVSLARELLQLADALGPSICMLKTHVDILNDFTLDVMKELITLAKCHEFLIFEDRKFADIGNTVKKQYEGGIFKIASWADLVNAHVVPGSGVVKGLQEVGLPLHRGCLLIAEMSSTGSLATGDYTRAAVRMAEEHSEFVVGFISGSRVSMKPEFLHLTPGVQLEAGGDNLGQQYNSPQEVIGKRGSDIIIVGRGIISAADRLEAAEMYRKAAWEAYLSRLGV
As to the kind of experiment: Inhibition Assay. Particulars: pH 8; 25 °C. On the procedure:
as §1

As for `O=c1[nH]c(=O)n(C[C@@H]2N[C@H](COP(=O)(O)O)C(O)C2O)cc1Br` (stereo not given in full) [OPRT inhibitor, 4], the Ki worked out at 370 nM in assay [1] and 200 nM in assay [2].
`O=c1[nH]c(=O)n(CCN2CC(O)[C@@H](CO)C2)cc1Br` (stereo not given in full) [OPRT inhibitor, 11]: the Ki in assay [1] stood at 1300 nM; in assay [2] it was 520 nM.
The like results for `O=C(O)c1cc(=O)[nH]c(=O)n1CCN1CC(O)C(O)[C@H]1CO` (stereo not given in full) [OPRT inhibitor, 10] were, in that order, 690 nM and 290 nM.
As for `O=[N+]([O-])c1ccc(CNC(CO)CO)cc1` [OPRT inhibitor, 19], the Ki was determined as 500 nM in assay [1] and 150 nM in assay [2].
In the same order, the values of `O=C1c2cc(=O)[nH]c(=O)n2C[C@H]2C(O)C(O)[C@@H](COP(=O)(O)O)N12` (stereo not given in full) [OPRT inhibitor, 8] are 170 nM and 90 nM.
The like results for `O=c1[nH]c(=O)n(C[C@@H]2N[C@H](CO)C(O)C2O)cc1Br` (stereo not given in full) [OPRT inhibitor, 3] were, in that order, 350 nM and 530 nM.
Regarding `O=c1[nH]c(=O)n(CCN2CC(O)C(O)[C@H]2CO)cc1Br` (stereo not given in full) [OPRT inhibitor, 9], the Ki came out at 270 nM in assay [1] and 80 nM in assay [2].
Take `O=C(O)c1[nH]c(=O)[nH]c(=O)c1CN1CCCC1` [OPRT inhibitor, 13]: the results for the Ki in assay [1] and in assay [2] were 470 nM and 250 nM, respectively.
The like results for `O=[N+]([O-])c1ccc(CN2CC(O)[C@@H](CO)C2)cc1` (stereo not given in full) [OPRT inhibitor, 17] were, in that order, 750 nM and 200 nM.
The like results for `O=[N+]([O-])c1ccc(CCN2CC(O)[C@@H](CO)C2)cc1` (stereo not given in full) [OPRT inhibitor, 18] were, in that order, 570 nM and 230 nM.
Turning to `N#Cc1cc(=O)[nH]c(=O)n1C[C@@H]1N[C@H](COP(=O)(O)O)C(O)C1O` (stereo not given in full) [OPRT inhibitor, 6], the Ki in assay [1] stood at 350 nM; in assay [2], 140 nM.
For `O=[N+]([O-])c1ccc(CCNC(CO)CO)cc1` [OPRT inhibitor, 20], the values for the Ki in assay [1] and in assay [2] were 510 nM and 120 nM, respectively.
In the same order, the values of `N#Cc1cc(=O)[nH]c(=O)n1C[C@@H]1N[C@H](CO)C(O)C1O` (stereo not given in full) [OPRT inhibitor, 5] are 300 nM and 360 nM.
In the same order, the values of `O=C(O)c1[nH]c(=O)[nH]c(=O)c1CN1CC(O)[C@@H](COP(=O)(O)O)C1` (stereo not given in full) [OPRT inhibitor, 15] are 500 nM and 240 nM.
The like results for `O=C(O)c1ccncc1[C@@H]1N[C@H](COP(=O)(O)O)C(O)C1O` (stereo not given in full) [OPRT inhibitor, 12] were, in that order, 15500 nM and 4300 nM.
Consider `O=[N+]([O-])c1ccc([C@@H]2N[C@H](CO)C(O)C2O)cc1` (stereo not given in full) [OPRT inhibitor, 16], for which the Ki in assay [1] amounted to 480 nM; in assay [2], 230 nM.
In the same order, the values of `O=[N+]([O-])c1ccc(O[C@@H]2O[C@H](COP(=O)(O)O)C(O)C2O)cc1` (stereo not given in full) [OPRT inhibitor, 2] are 40 nM and 41 nM.
The like results for `O=[N+]([O-])c1ccc(O[C@@H]2O[C@H](CO)C(O)C2O)cc1` (stereo not given in full) [OPRT inhibitor, 1] were, in that order, 190 nM and 120 nM.
The like results for `O=C(O)c1[nH]c(=O)[nH]c(=O)c1CN1CC(O)[C@@H](CO)C1` (stereo not given in full) [OPRT inhibitor, 14] were, in that order, 220 nM and 83 nM.
As for `O=C1c2cc(=O)[nH]c(=O)n2C[C@H]2C(O)C(O)[C@@H](CO)N12` (stereo not given in full) [OPRT inhibitor, 7], the values for the inhibitory constant (Ki) in assay [1] and in assay [2] were 270 nM and 110 nM, respectively.
